US9006454B2, “Dihydroorotate dehydrogenase inhibitors” (Merck Serono S.A., priority 2009, dated 2015)

Tests used:
L1210 murine leukemia = conditions: cited from earlier work
colon 38 tumor = conditions: murine model colon 38 tumor; cited from earlier work
[1] = system: experimental allergic encephalomyelitis (EAE); conditions: oral, from 10 days after inoculation; Teriflunomide 3 and 10 mg/kg, dexamethasone 1 mg/kg; cited from earlier work
[2] = system: multiple sclerosis with relapses; conditions: once-daily oral 7 and 14 mg; cited from earlier work
[3] = system: spleen colony-forming units (CFU); conditions: cited from earlier work
DHODH [4] = target: T1, DHODH (Homo sapiens (Human), UniProt Q02127); conditions: cited from earlier work
Target sequence in this assay (Q02127 whole entry, species assumed): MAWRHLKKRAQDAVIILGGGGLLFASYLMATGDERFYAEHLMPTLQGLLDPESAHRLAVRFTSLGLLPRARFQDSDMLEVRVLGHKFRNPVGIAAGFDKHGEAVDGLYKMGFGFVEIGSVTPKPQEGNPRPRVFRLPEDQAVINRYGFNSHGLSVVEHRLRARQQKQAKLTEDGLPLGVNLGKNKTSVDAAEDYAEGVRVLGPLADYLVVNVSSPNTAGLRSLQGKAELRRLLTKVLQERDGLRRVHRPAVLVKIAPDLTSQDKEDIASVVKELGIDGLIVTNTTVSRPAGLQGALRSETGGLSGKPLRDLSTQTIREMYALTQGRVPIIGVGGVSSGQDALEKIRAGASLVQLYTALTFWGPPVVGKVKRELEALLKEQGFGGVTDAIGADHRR

DHODH [5] = target: T1, DHODH; test: DHODH activity assay (coupled enzyme assay, DCIP reduction, absorbance at 610 nm); type: biochemical; conditions: for inhibition at 10 µM: compound at 10 uM, read-out: inh @ 10 uM hDHODH (%)
Target sequence in this assay (Q02127 whole entry): as the sequence (Q02127 whole entry, species assumed) above

Jurkat cells = test: Measurement of cell proliferation (Jurkat cell), XTT assay; type: cell-based; conditions: Homo sapiens, Jurkat; for inhibition at 1 µM: compound at 1 uM, read-out: % inh Jurkat_cells @ 1 uM (%); for EC50: 72 h, XTT cell viability
Summary of the method: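 Jurkat T cells, 100,000 per well in RPMI with 10% FBS, exposed 72 h at 37 °C to serial compound dilutions (typically from 10 μM, half-log steps, triplicate) at 0.25–0.5% DMSO. Viability by XTT/PMS, A465 after 2 h, media background subtracted, untreated cells as 100%; EC50 from curve fit.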

inhibition at 10 µM (DHODH [5]) | IC50 (DHODH [5]) | Structure (SMILES) | inhibition at 1 µM (Jurkat cells) | other results
72% | – | O=C(O)c1cccc2[nH]c(-c3ccc(-c4ccccc4OCc4ccccc4)cc3)nc12 [I169] | 22% | –
93.9% | 0.373 µM | Cc1cc(C(=O)O)c2[nH]c(-c3ccc(-c4ccccc4F)cc3)nc2c1 [I26] | 75.9% | EC50 (Jurkat cells): 0.105 µM
99.2% | 0.407 µM | Cc1cc(C(=O)O)c2nc(-c3ccc(-c4cccnc4)cc3)[nH]c2c1 [I59] | 73.5% | EC50 (Jurkat cells): 0.45 µM
29.6% | – | O=C(O)c1cccc2nc(-c3ccc(-c4ccccn4)cc3)[nH]c12 [I73, 2-(4-Pyridin-2-yl-phenyl)-3H-benzoimidazole-4-carboxylic acid] | 13.6% | –
86.7% | 0.965 µM | O=C(O)c1cccc2nc(-c3ccc(-c4ccccc4F)cc3F)[nH]c12 [I24] | 53.2% | –
102% | 0.35 µM | Cc1cc(C(=O)O)c2nc(-c3ccc(-c4ccc(O)cc4)cc3)[nH]c2c1 [I117] | 76% | –
69.6% | – | O=C(O)c1cccc2nc(-c3ccc(-c4ccc(F)cc4F)cc3)[nH]c12 [I32] | 21.1% | –

The next lines start with the molecule.

Structure (SMILES) | inhibition at 10 µM (DHODH [5]) | IC50 (DHODH [5]) | inhibition at 1 µM (Jurkat cells) | other results
Cc1c(-c2ccc(-c3ccccc3F)cc2)nc2ccc(F)cc2c1C(=O)O [Brequinar, 6-Fluoro-2-(2′-fluoro[1,1′-biphenyl]-4-yl)-3-methyl-4-quinolinecarboxylic Acid] | – | – | – | anticancer activity towards L1210 murine leukemia (L1210 murine leukemia): exhibits an anticancer activity; potentiation of 5-fluorouracil antitumor activity (colon 38 tumor): potentiates 5-fluorouracil antitumor activity
C/C(O)=C(\C#N)C(=O)Nc1ccc(C(F)(F)F)cc1 [Teriflunomide] | – | – | – | onset of disease and symptom severity in EAE [1]: significant delay in the onset of disease and in symptom severity; number of unique active lesions compared to placebo [2]: reduced number of unique active lesions; CFU cycling [3]: inhibited CFU cycling; fold greater inhibitor of DHODH than of protein tyrosine kinase (DHODH [4]): 100-1,000 fold
C[C@@H]1C[C@H]2[C@@H]3CCC4=CC(=O)C=C[C@]4(C)[C@@]3(F)[C@@H](O)C[C@]2(C)[C@@]1(O)C(=O)CO [dexamethasone] | – | – | – | onset of disease and symptom severity in EAE [1]: significant delay in the onset of disease and in symptom severity
O=C(O)c1cccc2[nH]c(-c3c(F)c(F)c(-c4ccc(F)cc4)c(F)c3F)nc12 [I133] | 101% | 0.808 µM | 54.7% | –
O=C(O)c1cccc2[nH]c(-c3ccc(Oc4ccccc4)cc3)nc12 [I10] | 80.3% | 2.87 µM | 35.1% | –
O=C(O)c1cccc2[nH]c(-c3c(F)c(F)c(-c4ccccc4)c(F)c3F)nc12 [I21] | 97.3% | 0.038 µM | 92.4% | EC50 (Jurkat cells): 0.238 µM
Cc1cc(-c2nnc(O)o2)c2nc(-c3c(F)c(F)c(-c4ccccc4)c(F)c3F)[nH]c2c1 [I159] | 32.3% | – | 13.4% | –
Nc1nnc(-c2cccc3[nH]c(-c4ccc(-c5ccccc5)cc4)nc23)s1 [I108] | 53% | 15.9 µM | 11% | –
O=C(O)c1cccc2[nH]c(-c3ccc(-c4ccc(OCc5cccnc5)cc4)cc3)nc12 [I184] | 53.3% | – | 25.4% | –
Cc1cc(C(=O)O)c2nc(-c3ccc(-c4ccc(Oc5ccc(C=O)cc5)cc4)cc3)[nH]c2c1 [I135] | 65.1% | 1.59 µM | 21.8% | –
COc1cc(-c2nc3c(C(=O)O)cccc3[nH]2)cc(OC)c1-c1ccccc1 [I20] | 93.2% | 0.975 µM | 67.1% | EC50 (Jurkat cells): 1 µM
Cc1cc(C(=O)O)c2nc(-c3c(F)c(F)c(-c4ccc(NC(=O)C5CCCN5)cc4)c(F)c3F)[nH]c2c1 (stereo not drawn) [I85] | 104% | 0.056 µM | 93.4% | –
